Measured values: US6716842B2, “Antidiabetic agents” (Warner-Lambert Company, LLC, priority 2002, dated 2004)
Where two headings read alike, the source gives them in different places.

System: PPAR-γ (promoter/enhancer of the murine aP2 gene in 3T3-L1 cells)
Assay: 3T3-L1 transient reporter assay (AD3T3L1)
Type: cell-based
Conditions: for % Max BRL: maximal effect relative to reference BRL 49653
Description: TEST E—3T3-L1 TRANSIENT REPORTER ASSAY
This assay is used to determine the potential of putative PPAR-γ ligands to activate the promoter/enhancer of the murine aP2 gene. 3T3-L1 preadipocytes are cultured on collagen coated plates in DMEM containing 10% Calf serum for 48 hours post-confluence. The cells are then cultured for approximately 3 days in DMEM containing 10% Fetal Bovine Serum (FBS), 0.5-mM methyl isobutylxanthine, 0.25 μM dexamethasone, and 1 μg/ml of insulin. Cells are detached from the plates with Trypsin-EDTA and resuspended in Phosphate Buffered Saline (PBS).
The reporter construct used in this assay is comprised of the −5.4 Kb 5′ flanking region of the murine aP2 gene inserted into the cloning site of the TKpGL3 luciferase vector. Transfection efficiency is controlled by co-transfection of the reference plasmid CMV-β-galactosidase. The reporter construct and the reference plasmid are transiently co-transfected into the cells by electroporation. The transfected cells are plated into collagen coated 96-well plates and cultured overnight. Cells are then incubated for 48 hours with the test compounds and then harvested. The lysates are measured for luciferase and β-galactosidase activities using the Dual-Light® luciferase kit from Tropix on a EG&G Berthold MicroLumat LB96P luminometer.

Compound	EC50	% Max BRL	EC50 (Mus musculus)
3-{2-Hydroxy-4-[2-(5-methyl-2-phenyl-oxazol-4-yl)-ethoxy]-phenyl}-propionic acid ethyl ester	5.9 µM	74%	
Cc1oc(-c2ccccc2)nc1CCOc1ccc(CCC(=O)O)c(O)c1 [3-[4-[2-(5-Methyl-2-phenyl-oxazol-4-yl)-ethoxy]-2-(hydroxy)-phenyl]-propionic acid]		70%	3.4 µM
Cc1oc(-c2ccccc2)nc1CCOc1ccc(CCC(=O)O)c(OCc2ccccn2)c1 [3-[4-[2-(5-Methyl-2-phenyl-oxazol-4-yl)-ethoxy]-2-(pyridin-2-ylmethoxy)-phenyl]-propionic acid]		108%	0.103 µM
